US20190119204A1, “ROR GAMMA (RORy) MODULATORS” (Lead Pharma Holding B.V., priority 2016, published 2019)
In brackets after ≈: the same amount, converted by molar mass. Read-outs that look alike come from different tables or passages of the source.

What was measured:
[1] = Aqueous equilibrated solubility; format: physicochemical; conditions: thermodynamic from solid; aqueous phosphate buffer 50 mM pH 7.4, shaken overnight at RT; pH 7.5 = pH of the solubilized fraction
Method: The studied compound was accurately weighted with a target concentration of 2 mg/mL in an aqueous phosphate buffer (50 mM at pH=7.4). The solution was shaken overnight (rock'n roll shaker) at RT and protected from light (about 24 hrs). The solution was filtered in plate filter device (microplate Millipore “Solvinert” with integrated PTFE filter; 0.45 μm) and the filtrate was dosed by LC/UV method.
The studied compound was accurately weighted with a target concentration of 0.1 mg/mL in DMSO. The solution was sonicated at RT and protected from light. The reference solution was dosed by a LC/UV method and pH of the solubilized fraction was measured.

CYP3A4 = biological target: T1, CYP3A4 (Homo sapiens, UniProt P08684); test: CYP3A4 inhibition assay; format: in vitro ADME; conditions: human liver microsomes
T1 construct: containing human liver microsomes (0.1 mg/mL); from tissue; host or cells: human liver microsomes
T1 sequence (P08684 whole entry): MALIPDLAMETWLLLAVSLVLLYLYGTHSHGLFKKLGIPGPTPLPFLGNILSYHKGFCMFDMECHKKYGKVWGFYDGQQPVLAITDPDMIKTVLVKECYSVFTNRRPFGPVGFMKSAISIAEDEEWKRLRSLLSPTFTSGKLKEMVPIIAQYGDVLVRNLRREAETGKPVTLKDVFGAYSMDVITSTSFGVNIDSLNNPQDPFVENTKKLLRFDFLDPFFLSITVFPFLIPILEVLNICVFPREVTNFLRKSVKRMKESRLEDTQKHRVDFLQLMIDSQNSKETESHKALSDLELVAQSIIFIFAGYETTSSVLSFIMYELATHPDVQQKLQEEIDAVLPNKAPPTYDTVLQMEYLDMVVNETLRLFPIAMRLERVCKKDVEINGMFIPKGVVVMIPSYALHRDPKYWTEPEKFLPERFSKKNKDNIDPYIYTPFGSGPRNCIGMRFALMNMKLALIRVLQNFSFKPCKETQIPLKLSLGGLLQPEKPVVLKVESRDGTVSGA
Method: In the CYP3A4 inhibition assay, in vitro IC50 of a test compound as direct inhibitor against CYP3A4 is determined, by measuring the inhibition of the turn-over of probe substrates of CYP3A4 (Midazolam and Testosterone) to their specific metabolites i.e., 1′-Hydroxymidazolam, 6β-Hydroxytestosterone, in human liver microsomes.
Examples 2-3 of the present application and example No.37 from WO2015/082533 were tested for CYP3A4 inhibition using two different probes: midazolam and testosterone.
Test compound dissolved in DMSO at selected concentrations was added to a phosphate buffer (50 mM, pH 7.4) containing human liver microsomes (0.1 mg/mL), MgCl (6 mM) and EDTA (0.5 mM) and CYP3A probe substrate, either midazolam (3 μM). Test compound was evaluated at the concentrations 1, 3, 10 and 30 μM and the final DMSO concentration in the incubation was 0.5%. After addition of […] NADPH the mixture was incubated at 37° C. for 10 min (midazolam) or 30 min (testosterone). The reaction was terminated by addition of cold CH3CN containing internal standard, centrifuged and formation of the CYP3A specific metabolite (either 1′-hydroxymidazolam or 6-β-hydroxytestosterone) was quantified by UPLC-MS/MS. The relative CYP3A activity at each test concentration was calculated and IC50 values determined using XLfit.

[2] = biological target: T2, hERG (human Ether-à-go-go-Related Gene) potassium channel (Homo sapiens, UniProt Q12809); test: hERG channel patch-clamp assay; format: cell-based; conditions: CHO cells stably expressing hERG, whole-cell patch-clamp, room temperature; read-out: hERG inhibition Assay IC50
T2 construct: expressed in transfected cells
T2 sequence (Q12809 whole entry): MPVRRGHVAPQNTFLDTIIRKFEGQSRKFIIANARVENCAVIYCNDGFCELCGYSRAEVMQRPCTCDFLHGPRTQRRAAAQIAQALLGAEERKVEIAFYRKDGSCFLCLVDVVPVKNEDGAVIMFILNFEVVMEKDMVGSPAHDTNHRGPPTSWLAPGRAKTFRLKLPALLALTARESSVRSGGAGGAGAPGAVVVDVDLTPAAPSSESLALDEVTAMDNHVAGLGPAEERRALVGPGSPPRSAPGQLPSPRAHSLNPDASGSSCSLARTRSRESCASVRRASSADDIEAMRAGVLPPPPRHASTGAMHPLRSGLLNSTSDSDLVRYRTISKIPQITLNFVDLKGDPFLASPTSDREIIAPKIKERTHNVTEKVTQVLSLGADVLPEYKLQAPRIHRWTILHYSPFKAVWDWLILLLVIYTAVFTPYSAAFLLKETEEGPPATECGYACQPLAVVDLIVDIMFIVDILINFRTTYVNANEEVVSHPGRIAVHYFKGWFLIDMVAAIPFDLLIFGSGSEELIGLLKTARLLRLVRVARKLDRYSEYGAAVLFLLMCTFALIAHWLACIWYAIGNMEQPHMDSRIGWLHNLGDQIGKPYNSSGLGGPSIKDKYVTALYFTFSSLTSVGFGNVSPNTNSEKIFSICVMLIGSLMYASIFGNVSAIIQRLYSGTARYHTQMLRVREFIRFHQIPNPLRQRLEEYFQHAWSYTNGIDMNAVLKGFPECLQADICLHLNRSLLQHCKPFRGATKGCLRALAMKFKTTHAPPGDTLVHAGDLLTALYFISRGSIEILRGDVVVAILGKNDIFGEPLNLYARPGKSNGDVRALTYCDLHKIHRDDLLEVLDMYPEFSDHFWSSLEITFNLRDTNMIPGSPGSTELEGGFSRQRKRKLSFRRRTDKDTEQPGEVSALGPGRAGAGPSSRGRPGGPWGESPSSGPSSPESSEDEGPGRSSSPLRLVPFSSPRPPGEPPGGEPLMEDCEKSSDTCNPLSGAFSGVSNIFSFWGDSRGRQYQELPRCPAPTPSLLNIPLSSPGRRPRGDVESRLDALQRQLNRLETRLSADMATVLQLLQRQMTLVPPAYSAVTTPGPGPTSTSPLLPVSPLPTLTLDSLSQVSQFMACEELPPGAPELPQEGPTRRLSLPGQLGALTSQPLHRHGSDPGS
Method: The hERG assay, in which hERG is brought to expression in CHO cells, provides information of the interaction of a compound with the hERG channel. The amplitude of hERG potassium channel tail currents are recorded under control and the compound solution at different concentrations. Then the IC50 value is determined from the dose-response curve.
Examples 2-3 of the present application and example No. 37 of WO2015/082533 were tested in vitro against the hERG (human Ether-à-go-go-Related Gene) potassium channel.
Frozen CHO (Chinese hamster ovary) cells stably expressing hERG channels were thawed and seeded on glass coverslips in petri dishes. Cells were cultured in HAM's F-12 media supplemented with 10% fetal bovine serum, 100 IU/mL penicillin, 100 μg/mL streptomycin and 500 μg/mL G418 (Invitrogen, Carlsbad, Calif.) in an atmosphere of 95% air/5% CO2 at 37° C. CHO cells were ready for patch-clamping after culture for 1-5 days. hERG currents were recorded at room temperature using the whole-cell patch-clamp technique with an Axopatch 200B amplifier (Molecular Devices, Sunnyvale Calif.). […] Currents were analyzed using the pCLAMP suite of software (Molecular Devices). […]

[3] = tested on: IL-17A production in anti-CD3/anti-CD28 stimulated peripheral blood mononuclear cells (PBMCs); test: Peripheral blood mononuclear cell (PBMC) IL-17 assay; format: cell-based; conditions: 120 h, human PBMCs, 5 days, IL-17A AlphaLISA, average of 11 human donors, read-out: PBMC IL-17 assay pIC50 Average (converted)
Method: Examples 2-3 of the present application and example No.37 from WO2015/082533 were tested for their ability to inhibit the IL-17A production in anti-CD3/anti-CD28 stimulated peripheral blood mononuclear cells (PBMCs) isolated from human blood.
This assay is designed to measure the levels of IL-17A secreted from anti-CD3/anti-CD28 stimulated PBMCs with the aim of measuring the inhibition of RORγ mediated IL-17A production.
The assay medium consists of 90% RPMI 1640 (Lonza), 10% heat-inactivated fetal bovine serum (FBS, Lonza) and 100 U/mL penicillin/streptomycin solution.
Anti-CD3 antibody (BD Pharmingen) was diluted to 10 μg/ml in PBS (Lonza). 30 μL of 10 μg/ml anti-CD3 solution was added to the inner 60 wells of a 96-well cell culture treated U-bottom plate (Greiner). Plates were incubated overnight (16-24 hours) at 37° C. and 5% CO2. […]
After incubation, the plates were spun down at 1500 rpm for 4 minutes and the supernatant was collected. Subsequently, the IL-17A levels in the supernatants was determined using an IL-17A AlphaLISA kit (Perkin Elmer) according to the manufacturer's protocol.
The half maximum inhibitory concentration (IC50) values for the test compounds were calculated from the IL-17A signal using GraphPad Prism software (GraphPad Software).

RORγ = biological target: T3, RORγ (Homo sapiens, UniProt P51449); test: RORγ GAL4 reporter gene assay; format: cell-based; conditions: 293FT cells, luciferase readout; average of 5 experiments; read-out: RORγ GAL4 reporter gene assay pIC50 Average (converted)
T3 construct: expressed in transfected cells; host or cells: 293FT cells (Invitrogen), expression vector pFN26A (Promega)
T3 sequence (P51449 269-508 limits assumed): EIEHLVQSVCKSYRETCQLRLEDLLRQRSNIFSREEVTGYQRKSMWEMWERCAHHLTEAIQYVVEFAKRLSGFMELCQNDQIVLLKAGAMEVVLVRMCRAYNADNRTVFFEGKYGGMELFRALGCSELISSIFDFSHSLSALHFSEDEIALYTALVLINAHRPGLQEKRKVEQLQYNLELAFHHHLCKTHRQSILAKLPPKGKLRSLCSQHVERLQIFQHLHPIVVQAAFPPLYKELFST
Method: Examples 2-3 of the present […] application and example No. 37 from WO2015/082533 were tested for their ability to inhibit RORγ activity in a RORγ GAL4 reporter gene assay.
A GAL4 one-hybrid reporter system employing luciferase readout was established to determine inhibition of RORγ in 293FT cells. The RORγ ligand-binding domain (LBD) was fused to the yeast GAL4 DNA binding domain (DBD) and placed under the control of the human cytomegalovirus (CMV) immediate early promoter, using expression vector pFN26A (Promega) and standard recombinant DNA cloning methods. To serve as a control in the assay, a similar vector was generated in which the GAL4-DBD was fused to Herpes simplex virus protein 16 (VP16), a constitutive transcriptional activator.
To monitor the inhibitory effect of compounds on RORγ, a transcriptional reporter construct was used. The pGL4.35 vector (Promega) contains nine copies of the GAL4 Upstream Activator Sequence (UAS). […]
The day after transfection, cells were plated into 96 well plates, test compound was added and the plates were incubated overnight. Subsequently, the firefly luciferase activity was quantified using luciferase detection reagent and luminescence readout. […]
For compound screening, the cells were harvested (as described above) and counted. […]

[4] = midazolam probe, read-out: CYP3A4 inhibition Assay IC50, Midazolam probe
[5] = testosterone probe, read-out: CYP3A4 inhibition Assay IC50, Testosterone probe

Row | SMILES | solubility at 24 h [1] | IC50 (CYP3A4; [4]) | IC50 (CYP3A4; [5]) | IC50 [2] | IC50 [3] | IC50 (RORγ)
1 | O=C(Cc1ccc([S@@+]([O-])CC2CC2)cc1)Nc1ccc([C@@](O)(C(F)F)C(F)(F)F)cc1 (single isomer, unassigned) [Example 10] | 94.8 µg/mL (≈ 205 µM) |  |  |  |  | 
2 | O=C(Cc1ccc([S@@+]([O-])CC2CC2)cc1)Nc1ccc([C@](O)(C(F)F)C(F)(F)F)cc1 (single isomer, unassigned) [Example 11] | 92.5 µg/mL (≈ 200 µM) |  |  |  |  | 
3 | O=C(Cc1ccc([S@+]([O-])CC2CC2)cc1)Nc1ccc([C@@](O)(C(F)F)C(F)(F)F)cc1 (single isomer, unassigned) [Example 12] | 94.4 µg/mL (≈ 205 µM) |  |  |  |  | 
4 | O=C(Cc1ccc([S@+]([O-])CC2CC2)cc1)Nc1ccc([C@](O)(C(F)F)C(F)(F)F)cc1 (single isomer, unassigned) [Example 13] | 93 µg/mL (≈ 202 µM) |  |  |  |  | 
5 | O=C(Cc1ccc(S(=O)(=O)CC2CC2)cc1)Nc1ccc([C@@](O)(C(F)F)C(F)(F)F)cc1 [Example 2, (+)-2-[4-(cyclopropylmethylsulfonyl)phenyl]-N-[4-[(1R)-1-(difluoromethyl)-2,2,2-trifluoro-1-hydroxy-ethyl]phenyl]acetamide] | < 1 µg/mL | 24 µM | 13 µM | 14.2 µM | 0.0631 µM | 0.0398 µM
6 | O=C(Cc1ccc(S(=O)(=O)CC2CC2)cc1)Nc1ccc([C@](O)(C(F)F)C(F)(F)F)cc1 [Example 3, (−)-2-[4-(cyclopropylmethylsulfonyl)phenyl]-N-[4-[(1S)-1-(difluoromethyl)-2,2,2-trifluoro-1-hydroxy-ethyl]phenyl]acetamide] | < 1 µg/mL | > 30 µM | 16 µM | 11.2 µM | 0.0251 µM | 0.0126 µM
7 | O=C(Cc1ccc([S+]([O-])CC2CC2)cc1)Nc1ccc(C(O)(C(F)F)C(F)(F)F)cc1 (centres unmarked) [Example 9, 2-[4-(cyclopropylmethylsulfinyl)phenyl]-N-[4-[1-(difluoromethyl)-2,2,2-trifluoro-1-hydroxy-ethyl]phenyl]acetamide] | 99.4 µg/mL (≈ 215 µM) |  |  |  |  | 
